From PubChem BioAssay (NCI) come the findings set out here.

Among the test systems are NCI-H226 lung; CAKI-1 renal; SK-OV-3 ovarian; LOX IMVI melanoma; HOP-62 NSCLC; SF-268 CNS; BT-549 breast; HOP-92 NSCLC; HCT-15 colon; COLO 205 colon.
Holding throughout (experiment): NCI-60 cell line screen, 48 h

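Cultured in 96-well plates, cells were exposed to test compound for 48 hours across five concentrations. GI50: concentration for 50% inhibition of growth. At the TGI there is no net growth.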

As to `C[C@]12CC[C@@H]3c4ccc(O)cc4CC[C@H]3[C@@H]1CC(Cc1ccccc1)(Cc1ccccc1)C2=O`, the GI50 in the experiment with NCI-H226 lung is 16 µM; in the experiment on CAKI-1 renal, 25.6 µM; in the experiment on SK-OV-3 ovarian, 21.2 µM; in the experiment with LOX IMVI melanoma, 12.7 µM; with HOP-62 NSCLC it was 17.7 µM; with SF-268 CNS, 21.2 µM. For the same compound, the GI50 was 18.8 µM with BT-549 breast, 2.16 µM with HOP-92 NSCLC, 13.9 µM in the experiment on HCT-15 colon and 13.4 µM in the experiment on COLO 205 colon. Besides, the TGI in the experiment on NCI-H226 lung stood at 31.3 µM; in the experiment on CAKI-1 renal it was 45.3 µM; in the experiment on SK-OV-3 ovarian it was 37.4 µM; in the experiment on LOX IMVI melanoma, 27.2 µM; in the experiment with HOP-62 NSCLC, 32.9 µM; with SF-268 CNS it was 58.3 µM. Besides, the TGI came out at 38.7 µM with BT-549 breast, 9.77 µM with HOP-92 NSCLC, 28.7 µM in the experiment with HCT-15 colon and 31.9 µM in the experiment with COLO 205 colon.
As to `COc1cc(OCCCN2CCCC2)ccc1Nc1ncc(Cl)c(Nc2ccccc2P(C)(C)=O)n1`, the GI50 in the experiment on NCI-H226 lung was 1.59 µM; in the experiment with CAKI-1 renal, 2.02 µM; in the experiment with SK-OV-3 ovarian it was 2.3 µM; in the experiment on LOX IMVI melanoma, 1.32 µM; in the experiment on HOP-62 NSCLC, 2.11 µM; in the experiment on SF-268 CNS, 2.49 µM. Also, the GI50 in the experiment with BT-549 breast was 3.86 µM; with HOP-92 NSCLC, 0.163 µM; in the experiment with HCT-15 colon, 3.67 µM; in the experiment with COLO 205 colon it was 1.08 µM. For the same compound, the TGI in the experiment with NCI-H226 lung was determined as 6.45 µM; in the experiment on CAKI-1 renal, 5.64 µM; in the experiment with SK-OV-3 ovarian it was 6.41 µM; in the experiment on LOX IMVI melanoma, 4.4 µM; in the experiment on HOP-62 NSCLC it was 12.5 µM; with SF-268 CNS it was 10.6 µM. Besides, the TGI was 11.7 µM in the experiment on BT-549 breast, 1.25 µM with HOP-92 NSCLC, greater than 46.6 µM with HCT-15 colon and 2.81 µM with COLO 205 colon.
Turning to `CC1(C)N=C(N)N=C(N)N1c1cccc(CCCCc2ccc(Cl)c(S(=O)(=O)F)c2)c1`, the GI50 with NCI-H226 lung was 8.38 µM; in the experiment with CAKI-1 renal it was 21.3 µM; in the experiment with SK-OV-3 ovarian, 11.7 µM; with LOX IMVI melanoma, 0.433 µM; in the experiment with HOP-62 NSCLC, 6.34 µM; with SF-268 CNS it was 1.47 µM. The GI50 in the experiment with BT-549 breast was 1.35 µM; with HOP-92 NSCLC it was 4.7 µM; in the experiment with HCT-15 colon, 6.47 µM; with COLO 205 colon, 1.75 µM. Besides, the TGI is 28.5 µM in the experiment on NCI-H226 lung; greater than 100 µM in the experiment on CAKI-1 renal; 27.8 µM with SK-OV-3 ovarian; 16.1 µM in the experiment with LOX IMVI melanoma; 21.2 µM with HOP-62 NSCLC; 16.2 µM in the experiment with SF-268 CNS. In addition, the TGI was 17.7 µM with BT-549 breast, 21.4 µM in the experiment with HOP-92 NSCLC, greater than 100 µM with HCT-15 colon and 18.6 µM with COLO 205 colon.
As to `CC1(C)CC[C@]2(C(=O)NCCNCCN)CC[C@]3(C)C(=CC[C@@H]4[C@@]5(C)CCC(=O)C(C)(C)[C@@H]5CC[C@]43C)[C@@H]2C1`, the GI50 in the experiment on NCI-H226 lung was 11 µM; in the experiment on CAKI-1 renal it was 1.82 µM; with SK-OV-3 ovarian, 2.56 µM; with LOX IMVI melanoma it was 1.81 µM; with HOP-62 NSCLC, 2.05 µM; in the experiment with SF-268 CNS, 1.89 µM. In addition, the GI50 is 1.56 µM in the experiment on BT-549 breast, 1.47 µM in the experiment with HOP-92 NSCLC, 1.79 µM with HCT-15 colon and 2.06 µM in the experiment with COLO 205 colon. Besides, the TGI in the experiment with NCI-H226 lung came to 36.1 µM; in the experiment on CAKI-1 renal, 4.47 µM; with SK-OV-3 ovarian, 6.09 µM; in the experiment with LOX IMVI melanoma, 3.26 µM; with HOP-62 NSCLC, 4.13 µM; in the experiment on SF-268 CNS, 4.06 µM. Besides, the TGI in the experiment with BT-549 breast was determined as 3.26 µM; with HOP-92 NSCLC, 4.4 µM; in the experiment with HCT-15 colon it was 3.29 µM; in the experiment on COLO 205 colon it was 4.18 µM.
Take `O=c1oc2ccc(F)cc2c(=O)n1-c1ccc(I)cc1F`: the GI50 was 0.472 µM with NCI-H226 lung; 0.337 µM in the experiment on CAKI-1 renal; 0.522 µM with SK-OV-3 ovarian; 0.374 µM in the experiment with LOX IMVI melanoma; 0.916 µM in the experiment with HOP-62 NSCLC; 0.435 µM with SF-268 CNS. The GI50 is 0.486 µM in the experiment on BT-549 breast, 0.206 µM with HOP-92 NSCLC, 0.471 µM in the experiment with HCT-15 colon and 2.67 µM with COLO 205 colon. The TGI in the experiment with NCI-H226 lung worked out at 4.5 µM; in the experiment on CAKI-1 renal it was 2.19 µM; in the experiment on SK-OV-3 ovarian it was 10.5 µM; in the experiment on LOX IMVI melanoma, 2.29 µM; with HOP-62 NSCLC it was 14.9 µM; with SF-268 CNS, 8.25 µM. Besides, the TGI worked out at 4.09 µM in the experiment on BT-549 breast, 0.577 µM in the experiment on HOP-92 NSCLC, 10.9 µM with HCT-15 colon and 8.82 µM in the experiment on COLO 205 colon.
For the compound `COc1ccc2c(c1)C(=O)/C(=C/c1ccc(O)cc1)O2`, the GI50 with NCI-H226 lung was 25.7 µM; in the experiment with CAKI-1 renal, 1.88 µM; in the experiment with SK-OV-3 ovarian, 52.7 µM; in the experiment with LOX IMVI melanoma it was 3.29 µM; in the experiment with HOP-62 NSCLC, 55.2 µM; in the experiment with SF-268 CNS, 14.8 µM. In addition, the GI50 in the experiment on BT-549 breast was 12.7 µM; in the experiment with HOP-92 NSCLC it was 3.37 µM; in the experiment on HCT-15 colon, 4.2 µM; in the experiment with COLO 205 colon it was 2.77 µM. For the same compound, the TGI with NCI-H226 lung was 79 µM; in the experiment with CAKI-1 renal it was 5.66 µM; in the experiment with SK-OV-3 ovarian it was greater than 100 µM; in the experiment with LOX IMVI melanoma, 14 µM; in the experiment on HOP-62 NSCLC, greater than 100 µM; in the experiment with SF-268 CNS it was 41.1 µM. For the same compound, the TGI in the experiment on BT-549 breast was determined as 29.8 µM; with HOP-92 NSCLC, 9.65 µM; with HCT-15 colon it was 15.8 µM; with COLO 205 colon it was 8.97 µM.
As to `N#Cc1c(N)c(C(=O)c2ccc3c(c2)OCCO3)n2c1CCCC2`, the GI50 was greater than 100 µM with NCI-H226 lung; 3.18 µM in the experiment on CAKI-1 renal; 5.47 µM in the experiment with SK-OV-3 ovarian; 6.92 µM in the experiment with LOX IMVI melanoma; 3.48 µM in the experiment on HOP-62 NSCLC; 7.46 µM in the experiment with SF-268 CNS. In addition, the GI50 in the experiment on BT-549 breast is 4.8 µM; in the experiment on HOP-92 NSCLC, 2.33 µM; in the experiment with HCT-15 colon it was 1.04 µM; in the experiment with COLO 205 colon it was 1.82 µM. The TGI in the experiment with NCI-H226 lung is greater than 100 µM; with CAKI-1 renal, greater than 100 µM; in the experiment with SK-OV-3 ovarian it was greater than 38.3 µM; in the experiment on LOX IMVI melanoma it was greater than 100 µM; in the experiment with HOP-62 NSCLC it was greater than 100 µM; in the experiment on SF-268 CNS it was greater than 100 µM. Besides, the TGI in the experiment on BT-549 breast is greater than 100 µM; with HOP-92 NSCLC, greater than 100 µM; in the experiment with HCT-15 colon, greater than 100 µM; in the experiment on COLO 205 colon it was greater than 23.5 µM.
